Biological target: T1, IKKβ (Homo sapiens, UniProt O14920)
T1 sequence (O14920 1-756): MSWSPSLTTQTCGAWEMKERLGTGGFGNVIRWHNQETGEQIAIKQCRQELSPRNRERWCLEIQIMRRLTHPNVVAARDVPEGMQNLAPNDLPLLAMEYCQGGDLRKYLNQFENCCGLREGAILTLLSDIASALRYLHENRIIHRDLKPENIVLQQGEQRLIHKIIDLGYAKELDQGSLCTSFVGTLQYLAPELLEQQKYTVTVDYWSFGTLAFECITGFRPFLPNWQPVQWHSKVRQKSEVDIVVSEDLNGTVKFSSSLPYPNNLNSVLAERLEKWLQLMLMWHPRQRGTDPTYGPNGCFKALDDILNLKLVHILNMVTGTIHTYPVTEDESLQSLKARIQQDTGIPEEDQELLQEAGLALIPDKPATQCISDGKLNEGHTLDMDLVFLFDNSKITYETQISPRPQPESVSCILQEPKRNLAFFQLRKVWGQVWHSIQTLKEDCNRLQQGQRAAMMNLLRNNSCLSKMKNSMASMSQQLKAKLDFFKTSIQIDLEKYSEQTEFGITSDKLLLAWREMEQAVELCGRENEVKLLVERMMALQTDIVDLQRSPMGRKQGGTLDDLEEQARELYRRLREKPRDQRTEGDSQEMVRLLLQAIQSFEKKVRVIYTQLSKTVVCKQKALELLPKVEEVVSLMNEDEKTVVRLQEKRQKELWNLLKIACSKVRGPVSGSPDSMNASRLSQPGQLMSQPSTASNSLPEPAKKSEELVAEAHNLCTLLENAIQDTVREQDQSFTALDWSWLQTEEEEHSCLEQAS
Assay: SPR
Assay type: binding

Kd: 32 µM
SMILES: CC(C)C1=CC2=CC[C@@H]3[C@](C)(CCC[C@@]3(C)C(=O)O)[C@H]2CC1 [AA, Abietic acid]

Reference: publication PMC6590626 (OncoTargets and therapy, 2019)
